From ChEMBL document CHEMBL2218064, “Structure-activity relationship data for chemical series of antagonists of the P2X7 receptor (Supplementary Bioactivity Data for publication CHEMBL1157114)”

Biological target: T1, P2X purinoceptor 7 (Homo sapiens, UniProt Q99572)
T1 sequence (Q99572 whole entry): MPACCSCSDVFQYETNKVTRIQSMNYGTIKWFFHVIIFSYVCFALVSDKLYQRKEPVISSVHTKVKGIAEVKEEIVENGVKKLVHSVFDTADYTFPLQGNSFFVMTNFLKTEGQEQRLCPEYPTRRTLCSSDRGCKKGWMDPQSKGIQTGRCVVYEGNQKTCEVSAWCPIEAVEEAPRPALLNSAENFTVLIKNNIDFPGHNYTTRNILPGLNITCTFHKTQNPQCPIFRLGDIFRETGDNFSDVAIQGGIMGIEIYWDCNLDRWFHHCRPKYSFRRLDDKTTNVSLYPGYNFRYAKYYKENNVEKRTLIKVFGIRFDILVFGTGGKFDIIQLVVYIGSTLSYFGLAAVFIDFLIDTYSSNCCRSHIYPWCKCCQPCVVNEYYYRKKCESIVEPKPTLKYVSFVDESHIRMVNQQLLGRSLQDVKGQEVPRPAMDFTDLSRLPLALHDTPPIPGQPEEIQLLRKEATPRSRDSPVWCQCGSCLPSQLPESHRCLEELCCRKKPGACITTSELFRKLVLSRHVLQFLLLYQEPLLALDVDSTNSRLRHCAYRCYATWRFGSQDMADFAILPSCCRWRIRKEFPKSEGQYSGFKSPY
Experiment: SUPPLEMENTARY: Inhibition of human P2X7 receptor assessed as inhibition of ethidium bromide accumulation. Same assay as CHEMBL1103860

Row | IC50 [µM] | SMILES
1 | 0.2 | CC(C)(C)c1nnc2n1CCN(C(=O)c1cccc(C(F)(F)F)c1Cl)C2
2 | 0.0126 | O=C(c1ccc(F)cc1Cl)N1CCn2c(nnc2-c2ccccc2)C1
3 | 0.00501 | Cn1ccc(-c2nnc3n2CCN(C(=O)c2cccc(C(F)(F)F)c2Cl)C3)n1
4 | 0.00631 | Cn1cccc1-c1nnc2n1CCN(C(=O)c1cccc(C(F)(F)F)c1Cl)C2
5 | 0.0126 | Cc1cc(-c2nnc3n2CCN(C(=O)c2cccc(C(F)(F)F)c2Cl)C3)no1
6 | 0.00501 | O=C(c1ccc(F)cc1Cl)N1CCn2c(nnc2-c2cnccn2)C1
7 | 0.00158 | O=C(c1cccc(C(F)(F)F)c1Cl)N1CCn2c(nnc2-c2ccc[nH]2)C1
8 | 0.00158 | O=C(c1cccc(C(F)(F)F)c1Cl)N1CCn2c(nnc2-c2cscn2)C1
9 | 0.0126 | O=C(c1cccc(C(F)(F)F)c1Cl)N1CCn2c(nnc2-c2cccnn2)C1
10 | 0.00251 | O=C(c1cccc(C(F)(F)F)c1Cl)N1CCn2c(nnc2-c2ccc(F)cn2)C1
11 | 0.0126 | Cn1cccc1-c1nnc2n1CCN(C(=O)c1cccc(Cl)c1Cl)C2
12 | 0.0251 | Cc1cc(-c2nnc3n2CCN(C(=O)c2cccc(Cl)c2Cl)C3)no1
13 | 0.0316 | O=C(c1cccc(Cl)c1Cl)N1CCn2c(nnc2-c2cccnn2)C1
14 | 0.501 | O=C(c1ccc(F)cc1Cl)N1CCn2c(nnc2-c2cccnn2)C1
15 | 0.00631 | Cn1ccc(-c2nnc3n2CCN(C(=O)c2cccc(Cl)c2Cl)C3)n1
16 | 0.00251 | O=C(c1cccc(Cl)c1Cl)N1CCn2c(nnc2-c2ccc[nH]2)C1
17 | 0.001 | O=C(c1cccc(Cl)c1Cl)N1CCn2c(nnc2-c2cscn2)C1
18 | 0.0158 | Cn1nccc1-c1nnc2n1CCN(C(=O)c1cccc(C(F)(F)F)c1Cl)C2
19 | 0.316 | O=C(c1ccc(F)cc1Cl)N1CCn2c(Br)nnc2C1
20 | 0.00158 | O=C(c1cccc(C(F)(F)F)c1Cl)N1CCn2c(nnc2-c2ccco2)C1
21 | 0.0251 | Cn1nccc1-c1nnc2n1CCN(C(=O)c1cccc(Cl)c1Cl)C2
22 | 0.501 | O=C(c1ccc(F)cc1Cl)N1CCn2c(Br)cnc2C1
23 | 0.00501 | O=C(c1cccc(C(F)(F)F)c1F)N1CCn2c(nnc2-c2ccccn2)C1
24 | 0.00316 | O=C(c1ccc(Cl)cc1Cl)N1CCn2c(nnc2-c2cnccn2)C1
25 | 0.0316 | O=C(c1ccc(F)cc1C(F)(F)F)N1CCn2c(nnc2-c2ccccn2)C1

Row | IC50 [µM] | SMILES
26 | 0.0126 | O=C(c1ccc(Cl)cc1Cl)N1CCn2c(nnc2-c2ccc(F)cn2)C1
27 | 0.00398 | O=C(c1cccc(C(F)(F)F)c1Cl)N1CCn2c(-c3ccc(F)cn3)cnc2C1
28 | 0.002 | O=C(c1ccc(Cl)cc1Cl)N1CCn2c(nnc2-c2cscn2)C1
29 | 0.00316 | O=C(c1cccc(Cl)c1Cl)N1CCn2c(nnc2-c2ccc(F)cc2)C1
30 | 0.0126 | O=C(c1cccc(Cl)c1Cl)N1CCn2c(nnc2-c2ccc(F)cc2F)C1
31 | 0.0316 | O=C(c1ccc(F)cc1Cl)N1CCn2c(nc(C(F)(F)F)c2Br)C1
32 | 0.0316 | CN1C(=O)N(c2cccnc2C#N)C[C@H]1C(=O)NCc1ccc(Cl)cc1Cl
33 | 0.398 | Cc1ccc(N2C[C@@H](C(=O)NCc3ccc(Cl)cc3Cl)N(C)C2=O)nn1
34 | 0.002 | CN1C(=O)N(CC(F)(F)F)C[C@H]1C(=O)NCc1ccc(Cl)cc1Cl
35 | 0.00316 | CN1C(=O)N(CCF)C[C@H]1C(=O)NCc1ccc(Cl)cc1Cl
36 | 0.00316 | CCN1C[C@@H](C(=O)NCc2ccc(Cl)cc2Cl)N(C)C1=O
37 | 0.00631 | O=C(c1cccc(C(F)(F)F)c1Cl)N1CCn2c(-c3ccccc3)cnc2C1
38 | 0.0158 | CN1C(=O)NC[C@H]1C(=O)NCc1c(F)cc(Cl)cc1Cl
39 | 0.00501 | CN1C[C@@H](C(=O)NCc2c(F)cc(Cl)cc2Cl)N(C)C1=O
40 | 0.000794 | CN1C[C@@H](C(=O)NCc2c(Cl)cc(Cl)cc2Cl)N(C)C1=O
41 | 0.00158 | CN1C(=O)NC[C@H]1C(=O)NCc1c(Cl)cc(Cl)cc1Cl
42 | 0.00316 | CN1C(=O)N(CC2CC2)CC1C(=O)NCc1ccc(Cl)cc1Cl (stereo not drawn)
43 | 0.00501 | CN1C(=O)N(CC2CCC2)CC1C(=O)NCc1ccc(Cl)cc1Cl (stereo not drawn)
44 | 0.00501 | CC(C)N1CC(C(=O)NCc2ccc(Cl)cc2Cl)N(C)C1=O (stereo not drawn)
45 | 0.02 | O=C(c1ccc(Cl)cc1Cl)N1CCn2c(-c3ccccc3)cnc2C1
46 | 0.00501 | CN1C(=O)N(C2CCCC2)CC1C(=O)NCc1ccc(Cl)cc1Cl (stereo not drawn)
47 | 0.00794 | O=C(c1cccc(C(F)(F)F)c1Cl)N1CCn2c(Br)nnc2C1
48 | 0.0794 | Cc1ccc(N2CCCC2)cc1N1CCN(C(=O)c2cccc(C(F)(F)F)c2Cl)CC1=O
49 | 0.0398 | Cc1ccc(Br)cc1N1CCN(C(=O)c2cccc(C(F)(F)F)c2Cl)CC1=O
50 | 0.0398 | Cc1ccc(-c2ccc(C)c(N3CCN(C(=O)c4cccc(C(F)(F)F)c4Cl)CC3=O)c2)cn1

Row | IC50 [µM] | SMILES
51 | 0.01 | Cc1c(N2CCCC2)cccc1N1CCN(C(=O)c2cccc(C(F)(F)F)c2Cl)CC1=O
52 | 0.00501 | O=C(c1cccc(Cl)c1Cl)N1CCN(c2cc(N3CCOCC3)ccc2Cl)C(=O)C1
53 | 0.01 | O=C(c1c(Cl)cc(Cl)cc1Cl)N1CCN(c2cc(N3CCOCC3)ccc2Cl)C(=O)C1
54 | 0.00794 | O=C(c1cccc(C(F)(F)F)c1Cl)N1CCN(c2cc(N3CCOCC3)ccc2Cl)C(=O)C1
55 | 0.00316 | O=C(c1cccc(C(F)(F)F)c1Cl)N1CCn2c(nnc2-c2ccccc2)C1
56 | 0.0158 | O=C(c1cccc(C(F)(F)F)c1Cl)N1CCn2c(nnc2N2CCCC2)C1
57 | 0.0501 | O=C(c1ccccc1Cl)N1CCn2c(-c3ccccc3)cnc2C1
58 | 0.00501 | O=C(c1cccc(Cl)c1Cl)N1CCn2c(-c3ccccc3)cnc2C1
59 | 0.0158 | O=C(c1ccc(F)cc1Cl)N1CCn2c(-c3ccccc3)cnc2C1
60 | 0.0126 | O=C(c1c(Cl)cc(Cl)cc1Cl)N1CCn2c(-c3ccccc3)cnc2C1
61 | 0.251 | O=C(c1cccc(C(F)(F)F)c1Cl)N1CCn2c(nnc2N2CCOCC2)C1
62 | 0.02 | CN(C)c1nnc2n1CCN(C(=O)c1cccc(C(F)(F)F)c1Cl)C2
63 | 0.0126 | O=C(c1cccc(C(F)(F)F)c1Cl)N1CCN(c2cccc(N3CCOCC3)c2Cl)C(=O)C1
64 | 0.0126 | O=C(c1cccc(C(F)(F)F)c1Cl)N1CCn2c(-c3ccc(F)cc3)cnc2C1
65 | 0.0158 | Cc1c(N2CCOCC2)cccc1N1CCN(C(=O)c2cccc(Cl)c2Cl)CC1=O
66 | 0.0126 | Cc1c(N2CCOCC2)cccc1N1CCN(C(=O)c2cccc(C(F)(F)F)c2Cl)CC1=O
67 | 0.0398 | Cc1c(N2CCOCC2)cccc1N1CCN(C(=O)c2c(Cl)cc(Cl)cc2Cl)CC1=O
68 | 0.0316 | Cc1nnc2n1CCN(C(=O)c1cccc(C(F)(F)F)c1Cl)C2
69 | 0.01 | Cc1ccc(N2CCC(O)C2)cc1N1CCN(C(=O)c2cccc(C(F)(F)F)c2Cl)CC1=O (stereo not drawn)
70 | 0.0501 | Cc1ccc(-c2cccc(N3CCN(C(=O)c4cccc(C(F)(F)F)c4Cl)CC3=O)c2C)cn1
71 | 0.0316 | CCc1nnc2n1CCN(C(=O)c1cccc(C(F)(F)F)c1Cl)C2
72 | 0.01 | O=C(c1cccc(C(F)(F)F)c1Cl)N1CCn2c(Br)cnc2C1
73 | 0.00631 | O=C(c1cccc(C(F)(F)F)c1Cl)N1CCn2c(nnc2-c2cccnc2)C1
74 | 0.1 | Cc1ccccc1-c1cnc2n1CCN(C(=O)c1cccc(C(F)(F)F)c1Cl)C2
75 | 0.0794 | COc1nnc2n1CCN(C(=O)c1cccc(C(F)(F)F)c1Cl)C2

Row | IC50 [µM] | SMILES
76 | 0.251 | CNc1nnc2n1CCN(C(=O)c1cccc(C(F)(F)F)c1Cl)C2
77 | 0.0251 | O=C(c1cccc(C(F)(F)F)c1Cl)N1CCn2c(nnc2N2CCC2)C1
78 | 0.1 | O=C(c1cccc(C(F)(F)F)c1Cl)N1CCn2c(nnc2N2CCCCC2)C1
79 | 0.0316 | CC(c1ccccc1)N1CCN(C(=O)c2cccc(C(F)(F)F)c2Cl)CC1=O (stereo not drawn)
80 | 0.00631 | O=C(c1cccc(C(F)(F)F)c1Cl)N1CCn2c(nc(I)c2I)C1
81 | 0.0251 | O=C(c1cccc(C(F)(F)F)c1Cl)N1CCn2c(nnc2-c2ccncc2)C1
82 | 0.00398 | O=C(c1cccc(C(F)(F)F)c1Cl)N1CCn2c(I)cnc2C1
83 | 0.0501 | Cc1cnc2n1CCN(C(=O)c1cccc(C(F)(F)F)c1Cl)C2
84 | 0.00501 | O=C(c1cccc(C(F)(F)F)c1Cl)N1CCn2c(nc(C(F)(F)F)c2Br)C1
85 | 0.0501 | O=C(c1cccc(Cl)c1Cl)N1CCn2c(Br)nnc2C1
86 | 0.0501 | O=C(c1cccc(C(F)(F)F)c1Cl)N1CCn2c(nc(C(F)(F)F)c2-c2ccccc2)C1
87 | 0.2 | O=C(c1ccc(Cl)cc1Cl)N1CCn2c(Br)nnc2C1
88 | 0.398 | O=C(c1c(Cl)cc(Cl)cc1Cl)N1CCn2c(Br)nnc2C1
89 | 0.0794 | O=C(c1cccc(C(F)(F)F)c1F)N1CCn2c(Br)nnc2C1
90 | 0.126 | Cc1cn2c(n1)CN(C(=O)c1cccc(C(F)(F)F)c1Cl)CC2
91 | 0.316 | Cc1cn2c(n1)CN(C(=O)c1cccc(Cl)c1Cl)CC2
92 | 0.631 | O=C(c1cccc(C(F)(F)F)c1Cl)N1CCn2c(-c3cccc(C(F)(F)F)c3Cl)cnc2C1
93 | 0.251 | O=C(c1cccc(C(F)(F)F)c1Cl)N1CCn2c(-c3ccc(Cl)cc3)cnc2C1
94 | 0.631 | CC(C)(C)c1cn2c(n1)CN(C(=O)c1cccc(C(F)(F)F)c1Cl)CC2
95 | 0.316 | O=C(c1cccc(C(F)(F)F)c1Cl)N1CCn2cc(-c3ccccc3)nc2C1
96 | 0.631 | O=C(c1cccc(Cl)c1Cl)N1CCn2cc(-c3ccccc3)nc2C1
97 | 0.0126 | O=C(c1cccc(C(F)(F)F)c1Cl)N1CCn2c(nnc2-c2ccncn2)C1
98 | 0.0158 | O=C(c1cccc(C(F)(F)F)c1Cl)N1CCn2c(nnc2-c2ccc(F)cc2F)C1
